From patent US20190365745A1, “USE OF CHRONIC TREATMENT WITH ATR INHIBITORS TO SENSITIZE CANCER CELLS TO PARP INHIBITORS” (Cornell University, priority 2018, published 2019)

Experiments:
Assay type in all cases: cell-based, Human
U2OS cells [1] = assay: DNA damage in cells undergoing chronic ATR inhibition alone
U2OS cells [2] = assay: SILAC/MS proteomic analysis of nuclear proteins (protein abundance); details: U2OS nuclear proteome; 5 μM ATRi, 8 days vs untreated
Protocol: (§1) FIG. 5A is a schematic diagram of the SILAC/MS experiment. FIG. 5B is a quadrant diagram of the SILAC/MS experiment. Each dot represents a different identified protein. Proteins with abundance reduced two-fold or more after ATRi treatment are shown in the upper-left corner (white quadrant). FIG. 5C is a WB analysis of U2OS cells after 8 days of chronic treatment with 5 μM of ATRi or ATMi. FIG. 5D is a time course WB analysis of U2OS cells during chronic treatment with 5 μM ATRi. FIG. 5E is a WB analysis of U2OS cells at distinct cell cycle stages. Cells were treated with 1 mM hydroxyurea (HU) or 50 ng/ml nocodazole (Noc) for 24 hours. HU treated cells were released for 2.5 hours in HU-free media. FIG. 5F is a WB analysis of U2OS cells untreated or treated for 8 days with 5 μM ATRi.
For quantitative proteomic analysis, U2OS cells chronically treated with DMSO or ATR inhibitor were cultured, respectively, in “light” or “heavy” SILAC DMEM media (ThermoFisher Scientific 88425) supplemented with 10% dialyzed FBS and penicillin/streptomycin. “Light” SILAC media was supplemented with “light” (normal) arginine ^12C6, […], while “heavy” SILAC media contained “heavy” lysine ^13C6, ^15N2 and “heavy” arginine ^13C6, ^15N4. […] HILIC fractions were dried and reconstituted in 0.1% trifluoroacetic acid and analyzed using a Q-Exactive Orbitrap and Lumos mass spectrometer. […]

U2OS cells [3] = assay: Immunoblotting of HR factor abundance
Protocol: as §1
Human U2OS, HCT116, hTERT RPE-1, HEK293T, HeLa, U87, T98G, A2780, and human skin fibroblast cells (GM08398 and GM18366) were grown in DMEM media supplemented with 10% bovine calf serum, penicillin/streptomycin and non-essential amino acids. SV40 large T antigen transformed hTERT RPE-1 cells were generated by infecting hTERT RPE-1 cells with a SV40 large T antigen (SV40 LT)-expressing retrovirus and were selected using 500 μg/ml G418. The stable SV40 large T antigen transformed hTERT RPE-1 cell line was then maintained in culture media supplemented 500 μg/ml G418. For chronic treatment with ATR inhibitor (ATRi, VE-821) or ATM inhibitor (ATMi, KU-55933), cells were maintained in media with 5 μM ATR or ATM inhibitor respectively for 8 days before cells were subjected to western blot analysis, proteomic analysis, DR-GFP/EJ5-GFP assay or immunofluorescent staining. For CHK1 inhibitor (UCN-01), cells were treated for 5 days with 0.2 μM of inhibitor before the analysis. Primary human fibroblast cells from control subjects (GM08398) and patients with Seckel syndrome (GM18366, ATR-defective) were obtained from Coriell Institute for Medical Research, Camden, N.J.
(§2) Cells were harvested and lysed in modified radioimmunoprecipitation assay (RIPA) buffer (50 mM Tris-HCl pH 7.5, 150 mM NaCl, 1% tergitol, 0.25% sodium deoxycholate, 5 mM EDTA) supplemented with Complete EDTA-free protease inhibitor cocktail (Roche), 1 mM PMSF, 5 mM sodium fluoride, 10 mM β-glycerol-phosphate and 0.4 mM sodium orthovanadate. Whole cell lysates were cleared with 5 minute centrifugation at 13,000 rpm at 4° C. and mixed with 3×SDS sample buffer (bromophenol blue, stacking gel buffer, 50% glycerol, 3% SDS and 60 mM DTT). After being resolved on SDS-PAGE gels, proteins were then transferred onto polyvinylidene difluoride (PVDF) membranes and detected with designated antibodies.

U2OS cells [4] = assay: Cycloheximide protein stability western blot; details: CHX 50 μg/ml with 5 μM ATRi vs CHX alone
Protocol: Fresh media containing CHX or CHX/ATRi was added every 6 hours. The right panel is a bar graph generated by measuring the intensity of the BRCA1 band from three independent experiments. Two-tailed Student's t-test was used for the statistics (Error bars=SD, N=3, ****P-value<0.0001).
as §2

hTERT RPE-1 cells = assay: Immunoblotting of HR factor abundance; details: 5 μM ATRi, 8 days
Protocol: (§3) FIGS. 14A-14B show WB analysis of hTERT RPE-1 (FIG. 14A) or HCT116 (colon cancer)(FIG. 14B) cells after 8 day chronic treatment with 5 μM ATRi or ATMi. […] FIGS. 14D-14E are bar graphs showing the analysis of HR-mediated repair using the DR-GFP system. Relative fold change of GFP positive hTERT RPE-1 (FIG. 14D) or HCT116 (FIG. 14E) cells over DMSO after ATRi treatment. (Error bars=SEM, N≥3, ****P-value<0.0001; one sample-t-test was used for the statistical analysis comparing 2 days versus 8 days of treatment).
(§4) Human U2OS, HCT116, hTERT RPE-1, HEK293T, HeLa, U87, T98G, A2780, and human skin fibroblast cells (GM08398 and GM18366) were grown in DMEM media supplemented with 10% bovine calf serum, penicillin/streptomycin and non-essential amino acids. […]
(§5) Cells were harvested and lysed in modified radioimmunoprecipitation assay (RIPA) buffer (50 mM Tris-HCl pH 7.5, 150 mM NaCl, 1% tergitol, 0.25% sodium deoxycholate, 5 mM EDTA) supplemented with Complete EDTA-free protease inhibitor cocktail (Roche), 1 mM PMSF, 5 mM sodium fluoride, 10 mM β-glycerol-phosphate and 0.4 mM sodium orthovanadate. […] After being resolved on SDS-PAGE gels, proteins were then transferred onto polyvinylidene difluoride (PVDF) membranes and detected with designated antibodies.

[5] = system: HCT116 (colon cancer) and indicated cancer cell lines; assay: Immunoblotting of HR factor abundance in cancer cell lines; details: cancer cells; 5 μM ATRi, 8 days
Protocol: as §3, §4, §5

`CS(=O)(=O)c1ccc(-c2cnc(N)c(C(=O)Nc3ccccc3)n2)cc1` [ATRi, VE-821] was tested, and the DNA damage (U2OS cells [1]) was “not detectable”, the “Abundance of proteins required for HR-mediated repair, including BRCA1 and FANCJ (SILAC/MS)” value (U2OS cells [2]) was “reduced” and the “Changes in abundance of NHEJ factors 53BP1 and PTIP (WB)” value (U2OS cells [3]; 5 μM ATRi, 8 days) was “minimal”. For the same molecule, the “Changes in protein abundance, time course (WB)” value (U2OS cells [3]; 5 μM ATRi, after 2 and 4 days) was “minor changes in protein abundance”, the “Changes in protein abundance, time course (WB)” value (U2OS cells [3]; 5 μM ATRi, after 6 and 8 days) was “changes become more striking” and the “Abundance of several proteins involved in HR-mediated repair (WB)” value (U2OS cells [3]; chronic ATR inhibition) was “severely reduced”. For the same molecule, the “Protein levels of RAD51 and TOPBP1 (WB)” value (U2OS cells [3]; chronic ATR inhibition, 5 μM, 8 days) was “reduced”, the “Abundance of the other HR proteins monitored in CHX-treated cells” value (U2OS cells [4]) was “did not change” and the “Protein levels of BRCA1 in CHX-treated cells” value (U2OS cells [4]) was “decreased”. For the same molecule, the “Abundance of BRCA1 (WB)” value (hTERT RPE-1 cells) was “did not result in major changes in the abundance of BRCA1” and the “Abundance of BRCA1 (WB)” value [5] was “severe reduction in the abundance of BRCA1”.
